# Assay results reported in patent US20090111177A1, “Maintenance of Embryonic Stem Cells by the GSK-3 Inhibitor 6-Bromoindirubin-3'-Oxime” (THE ROCKEFELLER UNIVERSITY, priority 2003, published 2009).
# Tests used:
# HESCs (H1, BGN1) = test: Feeder-free culture of HESCs, undifferentiated morphology; type: cell-based, human; conditions: for morphology / undifferentiated phenotype of HESCs: feeder-free, non-conditioned medium, 6-bromoindirubin-3′-oxime and Me analogue 2 μM, LiCl 5 mM, Wnt3a protein
# Method: (§1) Cell culture. Human embryonic stem cells (HESCs) lines were provided by WiCell Research Institute (H1 line)^5 and BresaGen Inc. (BGN1 and BGN2 lines). H1 cells were cultivated on irradiated mouse embryonic fibroblasts (MEFs) in medium consisting of 80% DMEM/F12 medium, 20% knockout serum replacement (KSR), 1 mM L-glutamine, 1% non-essential amino acids, 0.1 mM β-mercaptoethanol, and 4 ng/ml basic FGF (all from Invitrogen). […] Subsequently, HESCs were cultured on Matrigel (BD biosciences) in medium conditioned by MEFs, and passaged several times until colonies became free from contaminating MEFs as described before^9.
# [1] = system: canonical Wnt pathway (TCF binding sites, TopFlash); test: TopFlash/FopFlash luciferase reporter assay in CJ7 cells (MESCs); type: cell-based, mouse; conditions: CJ7 cells (MESCs); FIG. 2b
# Method: (§2) Luciferase assay. […] Test compounds were added 24 hrs after transfection. Following incubation for 24 hrs, cells were harvested, and analyzed by the dual luciferase reporter assay system (Promega) using Lumat (Berthold Technologies). Each value was standardized by Renilla luciferase activity.
# The canonical Wnt signal occurs through binding of the Wnt protein to the Frizzled receptor at cell surface. It is followed by inactivation of GSK-3, leading to accumulation of β-catenin in the nucleus that activates the transcription of Wnt target genes in collaboration with TCFs^18,19. Alternatively, Wnt signaling can be activated by direct, intracellular inhibition of the GSK-3 function using specific inhibitors^20. […] First we examined whether mouse and human ESCs were capable of transducing Wnt signaling under the influence of 6-bromoindirubin-3′-oxime. […] We then evaluated expression of β-catenin at the cellular level as a read-out of the activation status of the canonical Wnt pathway in HESCs.
# β-catenin = β-catenin immunofluorescence confocal analysis in HESCs; type: cell-based, human; conditions: compared to non-conditioned medium treated cells, FIG. 2c
# Method: as §1
# Immunofluorescence. […] For the quantitative image analysis, fluorescent images from triplicate samples were taken by the Discovery1 system (Universal Imaging Corporation). The fluorescent objects were selected by the threshold function and evaluated in five regions of each well by quantification of pixel intensities and the object size by using MetaMorph software (Universal Imaging Corporation).
# Rex-1 promoter [2] = test: Rex-1 luciferase reporter assay in CJ7 cells; type: cell-based, mouse; conditions: CJ7 cells; compared to LIF-treated cells
# Text: Nat Biotechnol 20, 87-90), a small fragment containing the TCF binding sites and the cFos promoter in pTopFlash was excised by XbaI digestion, and cloned into pcDNA3-Venus in which Venus was introduced into the multiple cloning site between BamHI and EcoRI of the pcDNA3 vector (Invitrogen) whose CMV promoter was eliminated by BglII and HindIII digestion. […] To generate the Rex-1-Venus reporter construct, the Rex-1 promoter region was cloned into pcDNA3-Venus.
# as §2
# Rex-1 promoter [3] = test: Rex-1 YFP reporter line CJRex-Y (imaging / FACS); type: cell-based, mouse; conditions: CJRex-Y cells, 5 d
# Method: Generation of stable mouse ES lines. CJ7 ES cells were transfected with pRex-1-Venus, pTY or pCAG-HygEGFP by using Lipofectamine 2000 (Invitrogen) followed by G418 (Invitrogen) selection at 200 μg/ml (for CJRex-Y or CJ-TY) or hygromycine (Invitrogen) selection at 600 μg/ml (for CJ-GFP). Two weeks after the drug selection, a number of single colonies were picked up, expanded and used for the further analyses.
# FACS analysis of MESCs. We cultured CJRex-Y cells at a low density (500 cells/cm^2) on gelatin-coated 10 cm dishes in mouse ES cell medium alone, medium containing LIF, medium conditioned from wild type L cells or medium conditioned from Wnt3a-L cells (ATCC) for 5 days. The Wnt3a conditioned medium was prepared according to the provider's protocol. Cells were harvested, resuspended in mouse ES medium and subjected to FACS analysis using FACSVantage SE system (BD Biosciences).
# Oct-3/4 = Oct-3/4 immunocytochemistry in HESCs; type: cell-based, human; conditions: HESCs in non-conditioned medium; FIG. 4c
# Method: as §1
# Immunofluorescence. Cells were fixed in 4% paraformaldehyde for 20 min at room temperature and incubated overnight at 4° C. with primary antibodies against Oct-4 (BD Biosciences), β-catenin (BD Biosciences), Tuj-1 (BAbCO), cytokeratin (Sigma), glial fibrillary acidic protein, GFAP, (Dako), smooth muscle actin (Research Diagnostics Inc), α-fetoprotein (α-FP, Cell Sciences) and Tromal (Developmental Studies Hybridoma Bank). For nuclear localization analysis, the fixed samples were subjected to fluorescent digital confocal imaging analysis using a Zeiss LSM 510 confocal microscope (Carl Zeiss). For mouse embryonic tissue sections, mid gestation embryos were fixed in 4% paraformaldehyde followed by paraffin embedding and tissue sectioning. After deparaffinization, tissue sections were incubated with a GFP-specific antibody (Molecular Probe) at 4° C. overnight. Antigens were localized by using goat anti-mouse IgG conjugated to Cy3 or goat anti-rabbit IgG conjugated to Cy2 (Zymed laboratories). For the quantitative image analysis, fluorescent images from triplicate samples were taken by the Discovery1 system (Universal Imaging Corporation). The fluorescent objects were selected by the threshold function and evaluated in five regions of each well by quantification of pixel intensities and the object size by using MetaMorph software (Universal Imaging Corporation).
# CJ-GFP cells (MESCs) = test: Low-density culture of CJ-GFP MESCs without LIF, morphology; type: cell-based, mouse; conditions: 1 μM; 7 d plus 5 d at low density; data not shown for Me analogue
# Method: Teratoma formation. We grew CJ-GFP cells at a low density (500 cells/cm^2) on gelatin-coated 10 cm dishes in medium containing 6-bromoindirubin-3′-oxime 1 μM for 7 d, then passaged cells at the same density and cultured under the same condition another 5 d to further enforce differentiation of cells.
# GSK-3 = conditions: from reference 10; cited from earlier work
# cyclin D1 = cyclin D1 immunofluorescence in HESCs; type: cell-based, human; conditions: HESCs (BGN2); non-CM; 6-bromoindirubin-3′-oxime 1.0 μM or Wnt3a protein 100 ng; FIG. 7
# Method: Immunofluorescence. HESCs were grown in conditioned medium (CM), non-CM, non-CM containing Me 6-bromoindirubin-3′-oxime (1.0 μM), non-CM containing 6-bromoindirubin-3′-oxime (1.0 μM) or non-CM containing recombinant mouse Wnt3a protein (100 ng/ml, R&D systems) for 5 d. Cells were fixed in 4% paraformaldehyde for 20 min at room temperature and incubated overnight at 4° C. with primary antibodies against cyclin D1 (Santa Cruz Technology, Santa Cruz, Calif.). Antigens were localized by using goat anti-rabbit IgG conjugated to Cy3 (Zymed laboratories).
compound,measurement,setting,value
"[Cl-].[Li+] [LiCl, reference compound]",toxicity to HESCs,"HESCs (H1, BGN1); 10 mM, FIG. 4c",substantial toxicity
same,morphology / undifferentiated phenotype of HESCs,"HESCs (H1, BGN1); 7 d",failed to maintain the undifferentiated phenotype
"CN1C(=O)C(=C2Nc3ccccc3C2=NO)c2ccc(Br)cc21 [Me 6-bromoindirubin-3′-oxime, 1-methyl-6-bromoindirubin-3′-oxime, reference compound]",TopFlash reporter activity,[1],did not show any change in activity
same,nuclear accumulation of β-catenin,β-catenin,did not show obvious difference
same,Rex-1 promoter activity,Rex-1 promoter [2],slightly reduced
same,colony morphology / cell shape,Rex-1 promoter [3]; FIG. 3b,flattened cell shape
same,Rex-1 transcriptional (YFP reporter) activity,Rex-1 promoter [3]; absence of LIF,substantially lower activity
same,morphology / undifferentiated phenotype of HESCs,"HESCs (H1, BGN1); 7 d",fully flattened morphology
same,Oct-3/4 expression at the cellular level,Oct-3/4,remarkable reduction of Oct-3/4 expression
same,colony morphology of MESCs without LIF,CJ-GFP cells (MESCs),large flat differentiated morphology
same,GSK-3 / kinase inhibition,GSK-3,kinase-inactive
Human-derived LIF: Human-derived LIF,prevention of HESC differentiation in non-conditioned medium,"HESCs (H1, BGN1); LIF up to 2,000 to 3,000 U/ml, 7 d",failed to prevent the differentiation
Wnt3a,cyclin D1 expression,cyclin D1,up-regulated cyclin D1 expression
same,morphology / undifferentiated phenotype of HESCs,"HESCs (H1, BGN1); 7 d",maintain compact undifferentiated colonies
same,Oct-3/4 expression at the cellular level,Oct-3/4,high level of Oct-3/4 expression
